{
  "source": "patent US20090181898A1",
  "about": "“ABUSE-RESISTANT A[…]” (SHIRE LLC, priority 2002, published 2009)",
  "experiment": "Pharmacokinetics in male beagle dogs after oral or 30-min intravenous administration, 1 mg/kg (LC/MS/MS)",
  "assay_type": "in vivo",
  "conditions": "for AUC(0-t): read-out: AUC0-t of L-lysine-d-amphetamine; for AUC(0-inf): read-out: AUCinf of L-lysine-d-amphetamine; for Cmax: read-out: Cmax of L-lysine-d-amphetamine; for MRT: read-out: MRT of L-lysine-d-amphetamine; for half-life: read-out: t1/2 of L-lysine-d-amphetamine (converted)",
  "source_text": "This was a non-randomized, two-treatment crossover study. All animals were maintained on their normal diet and were fasted overnight prior to each dose administration. L-lysine-d-amphetamine dose was based on the body weight measured on the morning of each dosing day. The actual dose delivered was based on syringe weight before and after dosing. Serial blood samples were obtained from each animal by direct venipuncture of a jugular vein using vacutainer tubes containing sodium heparin as the anticoagulant. Derived plasma samples were stored frozen until shipment to Quest Pharmaceutical Services, Inc. (Newark, Del.). Pharmacokinetic analysis of the plasma assay results was conducted by Calvert. Animals were treated as follows:\nOral: The test article was administered to each animal via a single oral gavage. On Day 1, animals received the oral dose by gavage using an esophageal tube attached to a syringe. Dosing tubes were flushed with approximately 20 mL tap water to ensure the required dosing solution was delivered.\nIntravenous: On Day 8, animals received L-lysine-d-amphetamine as a single 30-minute intravenous infusion into a cephalic vein.\nBlood: Serial blood samples (2 mL) were collected using venipuncture tubes containing sodium heparin. Blood samples were taken at 0, 0.25, 0.5, 1, 2, 4, 8, 12, 24, 48, and 72 hours post-oral dosing. […] Collected blood samples were chilled immediately.\nMicrosoft Excel (Version 6, Microsoft Corp., Redmond, Wash.) was used for calculation of mean plasma concentration and graphing of the plasma concentration-time data. Pharmacokinetic analysis (non-compartmental) was performed using the WinNonlin® software program (Version 4.1, Pharsight, Inc. Mountain View, Calif.). The maximum concentration (Cmax) and the time to Cmax(Tmax) were observed values. The area under the plasma concentration-time curve (AUC) was determined using linear-log trapezoidal rules. The apparent terminal rate constant (λz) was derived using linear least-squares regression with visual inspection of the data to determine the appropriate number of points (minimum of 3 data points) for calculating λz. The AUC0-inf was calculated as the sum of AUC0-t and Cpred/λz, where Cpred was the predicted concentration at the time of the last quantifiable concentration. The plasma clearance (CL/F) was determined as the ratio of Dose/AUC0-inf. The mean residence time (MRT) was calculated as the ratio of AUMC0-inf/AUC0-inf where AUMC0-inf was the area under the first moment curve from the time zero to infinity. The volume of distribution at steady state (Vss) was estimated as CL*MRT. Half-life was calculated as ln 2/λz. The oral bioavailability (F) was calculated as the ratio of AUC0-inf following oral dosing to AUC0-inf following intravenous dosing. Descriptive statistics (mean and standard deviation) of the pharmacokinetic parameters were calculated using Microsoft Excel.\nBlood samples were collected up to 24 and 72 hours after the intravenous and oral doses, respectively.",
  "key": {"[1]": {"conditions": "30 min iv, 1 mg/kg d-amphetamine base, individual dogs, 1 mg/kg"}, "[2]": {"conditions": "male, beagle, dog, plasma, iv, 1 mg/kg, 30 min iv, 1 mg/kg d-amphetamine base, individual dogs"}, "[3]": {"conditions": "male, beagle, dog, plasma, po, 1 mg/kg, oral, 1 mg/kg d-amphetamine base, individual dogs"}, "[4]": {"conditions": "oral, 1 mg/kg d-amphetamine base, individual dogs, 1 mg/kg"}},
  "note": "“And” between values parts separate entries of the source, which are not always exact repeats. Identical values can stand only once. Like-named read-outs stand apart in the source and are kept apart here.",
  "data": [
    {"smiles": "CC(Cc1ccccc1)NC(=O)C(N)CCCCN", "note": "[L-lysine-d-amphetamine, 2,6-diaminohexanoic acid-(1-methyl-2-phenylethyl)-amide]", "values": [
      {"measurement": "AUC0-t of L-lysine-d-amphetamine", "setting": "[1]", "value": "1072.3 ng·h/mL and 914.1 ng·h/mL"},
      {"measurement": "Cmax of L-lysine-d-amphetamine", "setting": "[1]", "value": "1826.4 ng/mL and 1654.2 ng/mL"},
      {"measurement": "MRT of L-lysine-d-amphetamine", "setting": "[1]", "value": "19.2 min and 18 min"},
      {"measurement": "Vss of L-lysine-d-amphetamine", "setting": "[1]", "value": "0.6034 L/kg and 0.656 L/kg"},
      {"measurement": "t1/2 of L-lysine-d-amphetamine", "setting": "[1]", "value": 63, "unit": "min"},
      {"measurement": "Time by which L-lysine-d-amphetamine fell below the quantifiable limit (1 ng/mL)", "setting": "IV infusion, post-dose", "value": "approximately 8 hours"},
      {"measurement": "AUC(0-t)", "setting": "[2]", "value": 898, "unit": "ng·h/mL"},
      {"measurement": "AUC(0-inf)", "setting": "[2]", "value": 900, "unit": "ng·h/mL"},
      {"measurement": "clearance", "setting": "male, beagle, dog, plasma, iv, 1 mg/kg, 30 min iv, 1 mg/kg d-amphetamine base, individual dogs, read-out: CL of L-lysine-d-amphetamine (converted)", "value": 37, "unit": "mL/min/kg"},
      {"measurement": "Cmax", "setting": "[2]", "value": 1470, "unit": "ng/mL"},
      {"measurement": "MRT", "setting": "[2]", "value": 21.6, "unit": "min"},
      {"measurement": "Vd", "setting": "male, beagle, dog, plasma, iv, 1 mg/kg, 30 min iv, 1 mg/kg d-amphetamine base, individual dogs, read-out: Vss of L-lysine-d-amphetamine", "value": 0.807, "unit": "L/kg"},
      {"measurement": "half-life", "setting": "[2]", "value": 43.2, "unit": "min"},
      {"measurement": "AUC(0-t)", "setting": "male, beagle, dog, plasma, iv, 1 mg/kg, 30 min iv, 1 mg/kg d-amphetamine base, mean of 3 dogs", "value": 962, "unit": "ng·h/mL"},
      {"measurement": "clearance", "setting": "male, beagle, dog, plasma, iv, 1 mg/kg, 30 min iv, 1 mg/kg d-amphetamine base, mean of 3 dogs, read-out: CL of L-lysine-d-amphetamine (converted)", "value": 34.8, "unit": "mL/min/kg"},
      {"measurement": "clearance", "setting": "male, beagle, dog, plasma, iv, 1 mg/kg, IV 30-min infusion, 1 mg/kg, read-out: Mean clearance of L-lysine-d-amphetamine", "value": 34.8, "unit": "mL/min/kg"},
      {"measurement": "AUC(0-t)", "setting": "[3]", "value": 368, "unit": "ng·h/mL"},
      {"measurement": "AUC(0-inf)", "setting": "[3]", "value": 369, "unit": "ng·h/mL"},
      {"measurement": "CL/F", "setting": "male, beagle, dog, plasma, po, 1 mg/kg, oral, 1 mg/kg d-amphetamine base, individual dogs, read-out: CL/F of L-lysine-d-amphetamine (converted)", "value": 90.4, "unit": "mL/min/kg"},
      {"measurement": "Cmax", "setting": "[3]", "value": 407, "unit": "ng/mL"},
      {"measurement": "bioavailability", "setting": "male, beagle, dog, plasma, po, 1 mg/kg, oral, 1 mg/kg d-amphetamine base, individual dogs, read-out: F (bioavailability) of L-lysine-d-amphetamine", "value": 34.3, "unit": "%"},
      {"measurement": "MRT", "setting": "[3]", "value": 44.4, "unit": "min"},
      {"measurement": "half-life", "setting": "[3]", "value": 28.8, "unit": "min"},
      {"measurement": "AUC(0-t)", "setting": "male, beagle, dog, plasma, po, 1 mg/kg, oral, 1 mg/kg d-amphetamine base, mean of 3 dogs", "value": 318, "unit": "ng·h/mL"},
      {"measurement": "AUC0-t of L-lysine-d-amphetamine", "setting": "[4]", "value": "310.8 ng·h/mL and 275.3 ng·h/mL"},
      {"measurement": "Cmax of L-lysine-d-amphetamine", "setting": "[4]", "value": "227.4 ng/mL and 350.2 ng/mL"},
      {"measurement": "F (bioavailability) of L-lysine-d-amphetamine", "setting": "[4]", "value": "34.0% and 30.8%"},
      {"measurement": "MRT of L-lysine-d-amphetamine", "setting": "[4]", "value": "61.8 min and 40.8 min"},
      {"measurement": "t1/2 of L-lysine-d-amphetamine", "setting": "[4]", "value": "27 min and 14.4 min"}
    ]}
  ]
}
